Reference: publication PMC7588595, “Small-molecule active pharmaceutical ingredients of approved cancer therapeutics inhibit human aspartate/asparagine-β-hydroxylase” (Bioorganic & Medicinal Chemistry, 2020)
Like-named read-outs stand apart in the source and are kept apart here.

Target: T1, human AspH (His6-AspH315–758) (Homo sapiens, UniProt Q12797)
T1 construct: N-Terminally His6-tagged human AspH315–758 (His6-AspH315–758) was produced in Escherichia coli BL21 (DE3) cells; made in house; host or cells: Escherichia coli BL21 (DE3), pET-28a(+) vector
T1 sequence (Q12797 315-758): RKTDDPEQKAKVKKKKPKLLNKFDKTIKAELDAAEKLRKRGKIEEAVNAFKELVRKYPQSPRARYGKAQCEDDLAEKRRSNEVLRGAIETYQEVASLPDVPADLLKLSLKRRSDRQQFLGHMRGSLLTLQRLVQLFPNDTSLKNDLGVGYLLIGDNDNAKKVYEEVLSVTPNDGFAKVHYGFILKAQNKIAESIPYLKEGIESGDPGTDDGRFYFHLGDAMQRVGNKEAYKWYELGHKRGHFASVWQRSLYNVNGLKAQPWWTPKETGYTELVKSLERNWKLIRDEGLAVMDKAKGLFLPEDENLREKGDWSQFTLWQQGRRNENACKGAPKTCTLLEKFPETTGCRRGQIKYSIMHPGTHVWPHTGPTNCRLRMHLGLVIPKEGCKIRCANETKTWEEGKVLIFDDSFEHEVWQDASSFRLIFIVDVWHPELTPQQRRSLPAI
Assay: SPE-MS AspH inhibition assay (hFX-CP101-119 substrate hydroxylation)
Assay type: biochemical
Details: for Plate 1 (% inhibition) / Plate 1 (% conversion) / Plate 1-duplicate (% inhibition) / Plate 1-duplicate (% conversion): AspH-inhibitor screening; for Plate 1 (% inhibition): 384-well Plate 1; for Plate 1 (% conversion): 384-well Plate 1, substrate conversion; for Plate 1-duplicate (% conversion): substrate conversion

[1] = 50 nM His6-AspH315–758, 1 μM hFX-CP101–119, 100 μM LAA, 3 μM 2OG, 2 μM FAS, 50 mM HEPES pH 7.5, 20 °C, read-out: IC50
[2] = read-out: IC50 at 10 μM substrate, 10 μM hFX-CP101–119 and 10 μM 2OG instead of 1 μM hFX-CP101–119 and 3 μM 2OG
[3] = read-out: IC50 at 20 μM Fe(II), 20 μM Fe(II) instead of 2 μM Fe(II)
[4] = read-out: IC50 at 200 μM 2OG, 200 μM 2OG instead of 3 μM 2OG

| SMILES | Plate 1 (% inhibition) [%] | Plate 1 (% conversion) [%] | Plate 1-duplicate (% inhibition) [%] | Plate 1-duplicate (% conversion) [%] | IC50 [1] [µM] | IC50 [2] [µM] | IC50 [3] [µM] | IC50 [4] [µM] | remaining activity at 20 µM (20 μM fixed inhibitor concentration) [%] | Hill coefficient of AspH inhibition curves (dose-response curves of SPE-MS AspH inhibition assay) |
| --- | --- | --- | --- | --- | --- | --- | --- | --- | --- | --- |
| NS(=O)(=O)OC[C@@H]1C[C@@H](n2ccc3c(N[C@H]4CCc5ccccc54)ncnc32)C[C@@H]1O [MLN4924] | 2.38 | 48.65 | -0.45 | 52.27 | – | – | – | – | – | – |
| COc1cc(Nc2ncc3c(n2)-c2ccc(Cl)cc2C(c2c(F)cccc2OC)=NC3)ccc1C(=O)O [MLN8237_Alisertib] | 2.09 | 48.78 | 7.11 | 48.51 | – | – | – | – | – | – |
| Cc1ccc(NC(=O)c2ccc(CN3CCN(C)CC3)cc2)cc1Nc1nc(-c2cccnc2)cs1 [Masitinib] | -15.10 | 56.72 | -11.47 | 57.73 | – | – | – | – | – | – |
| CC(=O)O[C@]1(C(C)=O)CC[C@H]2[C@@H]3C=C(C)C4=CC(=O)CC[C@]4(C)[C@H]3CC[C@@]21C [Megestrol acetate] | -14.51 | 56.45 | 7.27 | 48.44 | – | – | – | – | – | – |
| Cl.N[C@@H](Cc1ccc(N(CCCl)CCCl)cc1)C(=O)O [Melphalan hydrochloride] | 8.23 | 45.95 | 3.67 | 50.22 | – | – | – | – | – | – |
| N[C@@H](Cc1ccc(N(CCCl)CCCl)cc1)C(=O)O [Melphalan] | 9.41 | 45.40 | 3.88 | 50.12 | – | – | – | – | – | – |
| S=c1[nH]cnc2nc[nH]c12 [Mercaptopurine] | 7.41 | 46.33 | 10.69 | 46.74 | – | – | – | – | – | – |
| CN(C)C(=N)NC(=N)N.Cl [Metformin hydrochloride aq] | 5.05 | 47.42 | 7.45 | 48.35 | – | – | – | – | – | – |
| CN(Cc1cnc2nc(N)nc(N)c2n1)c1ccc(C(=O)N[C@@H](CCC(=O)O)C(=O)O)cc1 [Methotrexate] | 15.11 | 42.77 | 17.38 | 43.42 | – | – | – | – | – | – |
| COc1c2occc2cc2ccc(=O)oc12 [Methoxsalen] | 0.45 | 49.54 | 1.60 | 51.25 | – | – | – | – | – | – |
| C[C@H]1C[C@@H]2[C@H]([C@@H](O)C[C@@]3(C)[C@H]2CC[C@]3(O)C(=O)CO)[C@@]2(C)C=CC(=O)C=C12 [Methylprednisolone] | 8.67 | 45.75 | 6.32 | 48.91 | – | – | – | – | – | – |
| CO[C@@H]1[C@H](N(C)C(=O)c2ccccc2)C[C@H]2O[C@]1(C)n1c3ccccc3c3c4c(c5c6ccccc6n2c5c31)C(=O)NC4 [Midostaurin, reference compound] | – | – | – | – | 9.43 ± 3.07 | 6.02 ± 1.32 | 7.28 ± 0.9 | 12.4 ± 2.9 | – | – |
| CO[C@@]12[C@H](COC(N)=O)C3=C(C(=O)C(C)=C(N)C3=O)N1C[C@@H]1N[C@@H]12 [Mitomycin] | 1.59 | 49.02 | 2.59 | 50.76 | – | – | – | – | – | – |
| Clc1ccc(C(c2ccccc2Cl)C(Cl)Cl)cc1 (stereo not shown) [Mitotane] | 14.44 | 43.08 | 17.86 | 43.18 | – | – | – | – | – | – |
| O=C1c2c(O)ccc(O)c2C(=O)c2c(NCCNCCO)ccc(NCCNCCO)c21 [Mitoxantrone] | -29.89 | 63.55 | -22.19 | 63.05 | – | – | – | – | – | – |
| CC1(C)CNc2cc(NC(=O)c3cccnc3NCc3ccncc3)ccc21.O=P(O)(O)O.O=P(O)(O)O [Motesanib Diphosphate (AMG-706)] | 35.35 | 33.43 | 26.44 | 38.93 | – | – | – | – | – | – |

| SMILES | Plate 1 (% inhibition) [%] | Plate 1 (% conversion) [%] | Plate 1-duplicate (% inhibition) [%] | Plate 1-duplicate (% conversion) [%] | IC50 [1] [µM] | IC50 [2] [µM] | IC50 [3] [µM] | IC50 [4] [µM] | remaining activity at 20 µM (20 μM fixed inhibitor concentration) [%] | Hill coefficient of AspH inhibition curves (dose-response curves of SPE-MS AspH inhibition assay) |
| --- | --- | --- | --- | --- | --- | --- | --- | --- | --- | --- |
| CCNC(=O)c1noc(-c2cc(C(C)C)c(O)cc2O)c1-c1ccc(CN2CCOCC2)cc1 [NVP-AUY922] | -7.77 | 53.34 | -12.32 | 58.15 | – | – | – | – | – | – |
| Cn1c(=O)n(-c2ccc(C(C)(C)C#N)cc2)c2c3cc(-c4cnc5ccccc5c4)ccc3ncc21 [NVP-BEZ235_Dactolisib] | 5.14 | 47.38 | 3.83 | 50.14 | – | – | – | – | – | – |
| CCN1CCN(c2ccc(Nc3cc(N(C)C(=O)Nc4c(Cl)c(OC)cc(OC)c4Cl)ncn3)cc2)CC1 [NVP-BGJ398] | -4.10 | 51.64 | -20.49 | 62.20 | – | – | – | – | – | – |
| Cc1c(C(=O)Nc2ccc(N3C[C@@H](C)O[C@@H](C)C3)nc2)cccc1-c1ccc(OC(F)(F)F)cc1.O=P(O)(O)O.O=P(O)(O)O [NVP-LDE225 (Diphosphate salt)] | -20.13 | 59.05 | -19.69 | 61.81 | – | – | – | – | – | – |
| COc1nc(N)nc2c1ncn2[C@@H]1O[C@H](CO)[C@@H](O)[C@@H]1O [Nelarabine] | -1.21 | 50.31 | 1.44 | 51.33 | – | – | – | – | – | – |
| Cc1cn(-c2cc(NC(=O)c3ccc(C)c(Nc4nccc(-c5cccnc5)n4)c3)cc(C(F)(F)F)c2)cn1 [Nilotinib] | -10.38 | 54.54 | -7.89 | 55.95 | – | – | – | – | – | – |
| CC1(C)NC(=O)N(c2ccc([N+](=O)[O-])c(C(F)(F)F)c2)C1=O [Nilutamide] | 4.05 | 47.88 | 4.06 | 50.03 | – | – | – | – | – | – |
| COc1ccc(C2=N[C@@H](c3ccc(Cl)cc3)[C@@H](c3ccc(Cl)cc3)N2C(=O)N2CCNC(=O)C2)c(OC(C)C)c1 [Nutlin-3] | -13.27 | 55.88 | -5.84 | 54.94 | – | – | – | – | – | – |
| COc1cccc2cc(-c3nc([C@H]4CC[C@H](C(=O)O)CC4)n4ncnc(N)c34)[nH]c12 [OSI-027] | -4.91 | 52.02 | -2.62 | 53.34 | – | – | – | – | – | – |
| C[C@]1(O)C[C@@H](c2nc(-c3ccc4ccc(-c5ccccc5)nc4c3)c3c(N)nccn32)C1 [OSI-906_Linsitinib] | 4.66 | 47.60 | -12.38 | 58.18 | – | – | – | – | – | – |
| COc1c/c(=C2\C=c3ccccc3=N2)[nH]/c1=C\c1[nH]c(C)cc1C.CS(=O)(=O)O [Obatoclax, reference compound] | – | – | – | – | 13.2 ± 3.1 | 9.44 ± 3.16 | 11.9 ± 0.8 | 16.4 ± 4.6 | ~20 | < -2.0 |
| O=C(c1cc(Cc2n[nH]c(=O)c3ccccc23)ccc1F)N1CCN(C(=O)C2CC2)CC1 [Olaparib] | 15.27 | 42.70 | 14.14 | 45.03 | – | – | – | – | – | – |
| COC(=O)C[C@](O)(CCCC(C)(C)O)C(=O)O[C@@H]1C(OC)=C[C@]23CCCN2CCc2cc4c(cc2[C@H]13)OCO4 [Omacetaxine mepesuccinate] | -1.21 | 50.31 | 6.33 | 48.90 | – | – | – | – | – | – |
| C=CC(=O)Nc1cc(Nc2nccc(-c3cn(C)c4ccccc34)n2)c(OC)cc1N(C)CCN(C)C [Osimertinib] | 34.01 | 34.05 | 33.73 | 35.31 | – | – | – | – | – | – |
| O=C(O)C(=O)O.[NH-][C@@H]1CCCC[C@H]1[NH-].[Pt+2] [Oxaliplatin] | 8.19 | 45.97 | 11.28 | 46.45 | – | – | – | – | – | – |
| C=CCc1cccc(/C=N/NC(=O)CN2CCN(Cc3ccccc3)CC2)c1O [PAC-1] | 3.72 | 48.03 | -0.37 | 52.23 | – | – | – | – | – | – |
